Test results: patent US11406660B2, “Treatment of bone marrow edema (OEDEMA) with polysulfated polysaccharides” (PARADIGM HEALTH SCIENCES PTY LTD, priority 2011, dated 2022)

What was measured:
[1] = tested on: subchondral BME in the femoral subchondral bone; experiment: Case report Example 1: subject, knee injury with subchondral BME, course of PPS injections; type: in vivo, human; settings: for BME on T1 weighted MRI: subject, one week after completing 10 x 100 mg/ml IM injections, FIG. 1B vs FIG. 1A
Experimental: FIG. 1A is an MRI (T1 weighted scans) of subject […] showing the presence of bone marrow edema in the subchondral bone of the in left femoral condyle. Edema is evidenced by the reduced intensity of the signals in the semi-circular region beneath the articular cartilage. The MRI was taken 5 days following initial joint injury; and
FIG. 1B is an MRI (T1 weighted scans) of subject […] taken one week after completing a course of 10×100 mg/ml IM injection of pentosan polysulfate. […] Magnification of MRI image shown is slightly higher than for FIG. 1A.
A subject ([…]) in good general health while jogging on the footpath stumbled and fell laterally striking the pavement with their right knee. Next day the knee was swollen and extremely painful and when examined by a medical practitioner was diagnosed as avulsion of the collateral ligament attachment to tibial bone. […] Five days after sustaining the injury surgical repair was undertaken to re-attach the free ligament bone insertion to the tibia. However the knee pain persisted thereafter and was not relieved by use of analgesics or NSAIDs. Five weeks after the surgery a course of PPS, 100 mg/ml injections administered intramuscularly twice weekly for 5 weeks was initiated (total of 10 injections). After receiving the 6th injection, the pain and joint swelling had disappeared and one week after completion of the PPS course of injections the joint was again reviewed by T1 weighted MM.

[2] = tested on: sub-chondral bone contusion (BME); experiment: Case report Example 3: subject one, knee pain after sub-chondral bone contusion (BME), daily intramuscular PPS; type: in vivo, human; settings: for knee pain: 100 mg intramuscular daily
Experimental: For example, in one instance, the pain suffered by a patient was so debilitating that the patient received a total of 7 intramuscular injections (7×1 ml ampoules PPS [7×100 mg]) over a period of 7 day until the pain resolved. This equated to just over 1.0 mg/kg PPS daily.
A healthy person one with genu varum of approximately 5 degrees slipped on a step at an airport terminal while rushing to catch an international flight such that their left foot made an unexpected high impact with the ground. After arriving at their destination late that evening, the person retired for the night but was woken in the early hours of the morning with intense throbbing pain originating from the medial compartment of their left knee joint.

[3] = cited from earlier work
OA = settings: cited from earlier work

For pentosan polysulfate [PPS], the “pain and joint swelling” value ([1]; subject three, 100 mg/ml intramuscularly twice weekly for 5 weeks, after the 6th injection) was “disappeared”, the “BME on T1 weighted MRI” value [1] was “completely resolved” and the “BME on T1 weighted MRI” value ([1]; listed as pentosan polysulfate) was “absence of bone marrow edema”. For the same substance, the pain ([2]; a patient, 7 intramuscular injections (7 x 100 mg) over 7 days, just over 1.0 mg/kg daily) was “resolved”, the knee pain ([2]; subject one, after the 7th injection) was “completely resolved” and the knee pain ([2]; subject one, following the 5th injection) was “substantially subsided”. The “recurrence of debilitating joint pain” value ([2]; subject one, subsequent months following the PPS course of therapy) was “did not re-occur”, the “anticoagulant activity compared with heparin” value [3] was “weaker anticoagulant than heparin” and the “symptoms in patients with OA” value (OA) was “symptomatic relief”.
